Measured values reported in patent publication US20100280061A1, “NOVEL ANALGESIC THAT BINDS FILAMIN A” (priority 2009, published 2010).

How the values were obtained:
mu opiate receptor (MOR) = molecular target: T1, mu opiate receptor (MOR) (Rattus norvegicus, UniProt P33535); assay: [35S]GTPγS binding assay using striatal membranes (MOR agonist activity); type: biochemical; set-up: MOR agonist activity, [35S]GTPγS binding to Gαo, 0.1 μM / MOR agonist activity, [35S]GTPγS binding to Gαo, 1 μM / MOR agonist activity, [35S]GTPγS binding to Gαo, 1 μM + BFNA: reference not given here; conditions: for MOR agonist activity, [35S]GTPγS binding to Gαo, 0.1 μM: 0.1 μM compound; for MOR agonist activity, [35S]GTPγS binding to Gαo, 0.1 μM / MOR agonist activity, [35S]GTPγS binding to Gαo, 1 μM: striatal membranes; for MOR agonist activity, [35S]GTPγS binding to Gαo, 1 μM + BFNA: 1 μM compound + 1 μM β-funaltrexamine; for MOR agonist activity, [35S]GTPγS binding to Gαo, 1 μM: 1 μM compound
T1 construct: from tissue; host or cells: striatal tissue (membrane preparation)
T1 sequence (P33535 whole entry): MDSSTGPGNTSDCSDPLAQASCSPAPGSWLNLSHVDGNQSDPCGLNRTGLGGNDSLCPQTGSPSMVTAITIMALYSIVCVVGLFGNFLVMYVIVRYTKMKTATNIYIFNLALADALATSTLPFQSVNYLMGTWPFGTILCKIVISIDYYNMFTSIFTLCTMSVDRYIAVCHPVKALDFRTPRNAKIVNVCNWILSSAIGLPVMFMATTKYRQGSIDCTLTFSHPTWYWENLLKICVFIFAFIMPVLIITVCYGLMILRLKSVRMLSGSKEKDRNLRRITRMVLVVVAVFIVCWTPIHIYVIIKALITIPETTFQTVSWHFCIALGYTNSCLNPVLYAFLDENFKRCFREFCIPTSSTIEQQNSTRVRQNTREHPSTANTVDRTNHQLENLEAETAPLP
Description: To assess the mu opiate receptor (MOR) agonist activity of positive compounds from the FLNA screening, compounds were tested in a [^35S]GTPγS binding assay using striatal membranes. Our previous study has shown that in striatal membranes, activation of MOR leads to an increase in [^35S]GTPγS binding to Gαo (Wang et al., 2005 Neuroscience 135:247-261).
Striatal tissue was homogenized in 10 volumes of ice cold 25 mM HEPES buffer, pH 7.4, which contained 1 mM EGTA, 100 mM sucrose, 50 μg/ml leupeptin, 0.04 mM PMSF, 2 μg/ml soybean trypsin inhibitor and 0.2% 2-mercaptoethanol. The homogenates were centrifuged at 800×g for 5 minutes and the supernatants were centrifuged at 49,000×g for 20 minutes. The resulting pellets were suspended in 10 volume of reaction buffer, which contained 25 mM HEPES, pH 7.5, 100 mM NaCl, 50 μg/ml leupeptin, 2 μg/ml soybean trypsin inhibitor, 0.04 mM PMSF and 0.02% […].
The resultant striatal membrane preparation (200 μg) was admixed and maintained (incubated) at 30° C. for 5 minutes in reaction buffer as above that additionally contained 1 mM MgCl2 and 0.5 nM [^35S]GTPγS (0.1 μCi/assay, PerkinElmer Life and Analytical Sciences) in a total volume of 250 μl and continued for 5 minutes in the absence or presence of 0.1-10 μM of an assayed compound of interest. The reaction was terminated by dilution with 750 μl of ice-cold reaction buffer that contained 20 mM MgCl2 and 1 mM EGTA and immediate centrifugation at 16,000×g for 5 minutes.
The resulting pellet was solubilized by sonicating for 10 seconds in 0.5 ml of immunoprecipitation buffer containing 0.5% digitonin, 0.2% sodium cholate and 0.5% NP-40. Normal rabbit serum (1 μl) was added to 1 ml of lysate and incubated at 25° C. for 30 minutes. Nonspecific immune complexes were removed by incubation with 25 μl of protein A/G-conjugated agarose beads at 25° C. for 30 minutes followed by centrifugation at 5,000×g at 4° C. for 5 minutes. The supernatant was divided and separately incubated at 25° C. for 30 minutes with antibodies raised against Gαo proteins (1:1,000 dilutions).
The immunocomplexes so formed were collected by incubation at 25° C. for 30 minutes with 40 μl of agarose-conjugated protein A/G beads and centrifugation at 5,000×g at 4° C. for 5 minutes. The pellet was washed and suspended in buffer containing 50 mM Tris-HCl, pH 8.0, and 1% NP-40. The radioactivity in the suspension was determined by liquid scintillation spectrometry. […] DAMGO (H-Tyr-D-Ala-Gly-N-MePhe-Gly-OH; 1 or 10 μM) was used as a positive control.

[1] = molecular target: Bn-VAKGL pentapeptide of filamin A (FLNA) (Homo sapiens, UniProt P21333); assay: FITC-NLX-based FLNA screening assay (FLNA peptide binding assay); conditions: 10 nM FITC-NLX; for Percent inhibition of FITC-NLX binding, 0.01 μM: 0.01 μM compound; for Percent inhibition of FITC-NLX binding, 0.1 μM: 0.1 μM compound; for Percent inhibition of FITC-NLX binding, 1 μM: 1 μM compound
Description: The final assay volume is 100 μl.
Compounds are tested in triplicate or quadruplicate.

Structure (SMILES) | MOR agonist activity, [35S]GTPγS binding to Gαo, 0.1 μM (mu opiate receptor (MOR)) [%] | MOR agonist activity, [35S]GTPγS binding to Gαo, 1 μM + BFNA (mu opiate receptor (MOR)) [%] | MOR agonist activity, [35S]GTPγS binding to Gαo, 1 μM (mu opiate receptor (MOR)) [%] | Percent inhibition of FITC-NLX binding, 0.01 μM [1] [%] | Percent inhibition of FITC-NLX binding, 0.1 μM [1] [%] | Percent inhibition of FITC-NLX binding, 1 μM [1] [%]
COc1cc(OC)cc(C(=O)CC2c3c(cc4c(c3OC)OCO4)CC[N+]2(C)C)c1.[I-] (stereo not drawn) [B0035] | 188.0 | 74.2 | 248.7 | 45.4 | 44.7 | 51.0
COc1cc(C(=O)CC2c3c(cc4c(c3OC)OCO4)CC[N+]2(C)C)cc(OC)c1OC (stereo not drawn) [B0037] | 119.8 | 106.2 | 186.0 | 47.4 | 53.0 | 52.4
COc1cccc(CC(=O)CC2c3c(cc4c(c3OC)OCO4)CC[N+]2(C)C)c1OC (stereo not drawn) [B0038] | 147.5 | 117.1 | 205.3 | 41.2 | 50.1 | 57.0
COc1c2c(cc3c1C(CC(=O)Cc1ccccc1Cl)[N+](C)(C)CC3)OCO2.[I-] (stereo not drawn) [B0039] | 171.8 | 78.3 | 290.5 | 43.3 | 45.7 | 50.9
COCOc1ccc(C(=O)CC2c3c(cc4c(c3OC)OCO4)CC[N+]2(C)C)cc1C.[I-] (stereo not drawn) [B0041] | 61.6 | 41.9 | 109.3 | 44.0 | 46.8 | 52.8
COc1ccc(CCC(=O)CC2c3c(cc4c(c3OC)OCO4)CC[N+]2(C)C)cc1OC.[I-] (stereo not drawn) [B0042] | 69.9 | 43.1 | 107.5 | 40.8 | 46.4 | 51.6
COc1ccc(CCC(=O)CC2c3c(cc4c(c3OC)OCO4)CC[N+]2(C)C)c(OC)c1 (stereo not drawn) [B0043] | 74.8 | 166.4 | 248.1 | 30.8 | 39.2 | 46.8
COc1ccc(OC)c(CCC(=O)CC2c3c(cc4c(c3OC)OCO4)CC[N+]2(C)C)c1 (stereo not drawn) [B0044] | 87.3 | 134.6 | 170.0 | 35.2 | 39.5 | 44.4
COc1ccccc1CCC(=O)CC1c2c(cc3c(c2OC)OCO3)CC[N+]1(C)C (stereo not drawn) [B0045] | 129.3 | 83.8 | 193.1 | 63.2 | 68.2 | 73.9
COc1ccc(CCC(O)CC2c3c(cc4c(c3OC)OCO4)CCN2C)cc1 (stereo not drawn) [B0048] | 185.1 | 78.5 | 223.4 | 34.7 | 41.9 | 43.9
